Calls of active or inactive are those of the source. The calls are words filed in the database; no cut-off is given here.
Columns and labels:
[1] = Growth inhibition of human HBC5 cells measured after 48 hrs by sulforhodamine B assay; format: functional
U-251 = test: Growth inhibition of human U-251 cells measured after 48 hrs by sulforhodamine B assay; format: functional
HT-29 = test: Growth inhibition of human HT-29 cells measured after 48 hrs by sulforhodamine B assay; format: functional
DMS-114 = test: Growth inhibition of human DMS-114 cells measured after 48 hrs by sulforhodamine B assay; format: functional
OVCAR-5 = test: Growth inhibition of human OVCAR-5 cells measured after 48 hrs by sulforhodamine B assay; format: functional
SK-OV-3 = test: Growth inhibition of human SK-OV-3 cells measured after 48 hrs by sulforhodamine B assay; format: functional
MKN-1 [2] = test: Growth inhibition of human MKN-1 cells measured after 48 hrs by sulforhodamine B assay; format: functional
MKN-7 = test: Growth inhibition of human MKN-7 cells measured after 48 hrs by sulforhodamine B assay; format: functional
[3] = molecular target: DNA topoisomerase 2-alpha (Homo sapiens) (UniProt P11388); test: Inhibition of human DNA topoisomerase 2alpha assessed as suppression of decatenation using catenated kinetoplast DNA as substrate measured after 30 mins by ethidium bromide staining-based UV imaging analysis
GCIY [4] = test: Cytotoxicity against human GCIY cells assessed as reduction in cell viability measured after 48 hrs by MTS/CellTiter96 aqueous one solution cell proliferation assay; format: functional, cell-based
GCIY [5] = test: Induction of apoptosis in human GCIY cells assessed as activation of caspase 9 at 1 to 10 uM by fluorescence assay; format: functional, cell-based; conditions: dose 1-10 µM, time 5-35 hrs, TDE = time-dependent effect
GCIY [6] = test: Cell cycle arrest in human GCIY cells assessed as accumulation at G0/G1 phase at 0.1 uM measured after 24 hrs by propidium iodide staining based Muse cell analyzer (reference value: 43 +/- 2.2 %); format: functional
GCIY [7] = test: Cell cycle arrest in human GCIY cells assessed as accumulation at G0/G1 phase at 0.3 uM measured after 24 hrs by propidium iodide staining based Muse cell analyzer (reference value: 43 +/- 2.2 %); format: functional
MKN-1 [8] = test: Cell cycle arrest in human MKN-1 cells assessed as accumulation at G0/G1 phase at 0.1 uM measured after 24 hrs by propidium iodide staining based Muse cell analyzer (reference value: 49.6 +/- 2.6 %); format: functional
MKN-1 [9] = test: Cell cycle arrest in human MKN-1 cells assessed as accumulation at G2/M phase at 0.1 uM measured after 24 hrs by propidium iodide staining based Muse cell analyzer (reference value: 33.2 +/- 0.5 %); format: functional
MKN-1 [10] = test: Cell cycle arrest in human MKN-1 cells assessed as accumulation at G2/M phase at 0.3 uM measured after 24 hrs by propidium iodide staining based Muse cell analyzer (reference value: 33.2 +/- 0.5 %); format: functional
GCIY [11] = test: Antitumor activity against human GCIY cells xenografted in KSN/Slc nude mouse assessed as reduction in tumor size at 40 mg/kg, ip administered twice a week for 4 weeks starting from day 4 post inoculation by vernier caliper method; format: functional, organism-based
[12] = Toxicity in KSN/Slc nude mouse xenografted with human GCIY cells assessed as effect on body weight at 40 mg/kg, ip administered twice a week for 4 weeks starting from day 4 post inoculation; format: organism-based; conditions: in vivo, 672 h

DNA topoisomerase 2-alpha (Homo sapiens), sequence (P11388 whole entry): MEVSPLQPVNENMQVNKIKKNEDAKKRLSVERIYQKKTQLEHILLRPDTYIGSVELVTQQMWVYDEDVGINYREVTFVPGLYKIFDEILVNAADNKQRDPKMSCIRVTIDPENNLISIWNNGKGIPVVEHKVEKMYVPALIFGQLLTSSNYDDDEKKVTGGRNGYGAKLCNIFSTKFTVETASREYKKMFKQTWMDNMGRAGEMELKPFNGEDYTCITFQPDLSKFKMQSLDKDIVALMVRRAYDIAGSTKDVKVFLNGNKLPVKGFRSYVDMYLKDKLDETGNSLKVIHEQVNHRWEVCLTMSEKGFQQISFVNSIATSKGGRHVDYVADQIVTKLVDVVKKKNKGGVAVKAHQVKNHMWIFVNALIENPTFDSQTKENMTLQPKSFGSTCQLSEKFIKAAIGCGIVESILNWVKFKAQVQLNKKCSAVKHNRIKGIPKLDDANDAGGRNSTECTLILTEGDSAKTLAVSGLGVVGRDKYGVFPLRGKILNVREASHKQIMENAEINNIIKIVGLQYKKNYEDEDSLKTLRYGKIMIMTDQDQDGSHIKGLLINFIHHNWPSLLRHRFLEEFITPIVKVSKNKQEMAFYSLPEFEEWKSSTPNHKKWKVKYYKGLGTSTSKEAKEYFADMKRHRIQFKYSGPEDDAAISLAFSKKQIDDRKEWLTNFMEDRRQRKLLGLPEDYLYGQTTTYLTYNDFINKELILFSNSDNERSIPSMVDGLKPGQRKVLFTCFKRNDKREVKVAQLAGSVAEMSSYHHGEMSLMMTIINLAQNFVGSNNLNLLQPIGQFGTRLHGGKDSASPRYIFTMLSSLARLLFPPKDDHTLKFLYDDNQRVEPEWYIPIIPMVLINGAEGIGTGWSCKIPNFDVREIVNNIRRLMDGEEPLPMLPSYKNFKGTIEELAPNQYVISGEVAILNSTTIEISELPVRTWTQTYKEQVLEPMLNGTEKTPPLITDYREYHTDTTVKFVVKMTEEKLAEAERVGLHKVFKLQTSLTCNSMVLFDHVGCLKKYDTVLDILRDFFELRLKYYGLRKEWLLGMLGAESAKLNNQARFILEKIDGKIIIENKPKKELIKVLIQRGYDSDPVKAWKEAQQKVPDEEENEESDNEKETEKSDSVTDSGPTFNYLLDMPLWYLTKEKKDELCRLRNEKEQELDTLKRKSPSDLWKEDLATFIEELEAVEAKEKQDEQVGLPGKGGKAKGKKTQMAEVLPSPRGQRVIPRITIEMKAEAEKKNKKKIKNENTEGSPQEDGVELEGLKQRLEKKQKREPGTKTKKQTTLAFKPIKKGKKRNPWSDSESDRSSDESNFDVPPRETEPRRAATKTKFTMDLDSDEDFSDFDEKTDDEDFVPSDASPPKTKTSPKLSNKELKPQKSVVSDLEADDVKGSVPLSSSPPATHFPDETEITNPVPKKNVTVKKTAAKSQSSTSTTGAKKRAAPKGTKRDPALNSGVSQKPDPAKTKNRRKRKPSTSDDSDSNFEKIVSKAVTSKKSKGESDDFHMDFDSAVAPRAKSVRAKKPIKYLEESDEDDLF

GI50 (U-251): 331 nM
GI50 (HT-29): 10500 nM
GI50 (OVCAR-5): 1350 nM
GI50 (SK-OV-3): 427 nM
GI50 (MKN-1 [2]): 295 nM
GI50 (MKN-7): 4370 nM
inhibition [3]: Active
Structure (SMILES): CC(C)(O)[C@@H]1Cc2c(cc(O)c3c(=O)c(-c4ccc(O)cc4)coc23)O1
GI50 [1]: 6760 nM
GI50 (DMS-114): 380 nM
IC50 (GCIY [4]): 270 nM
Activity (GCIY [5]): Tde
Activity (GCIY [6]): 34.6%
Activity (GCIY [7]): 2.8%
Activity (MKN-1 [8]): 24.9%
Activity (MKN-1 [9]): 60.8%
Activity (MKN-1 [10]): 83.6%
Activity (GCIY [11]): Active
Activity [12]: Non-Toxic
